Test results published in EP0097071A1, “Benzhydryl sulfinylacetamide derivatives and their therapeutical use” (LABORATOIRE L. LAFON Société anonyme dite:, priority 1982, dated 1983).
Where two headings read alike, the source gives them in different places.

Key:
rats mâles = assay: Global behaviour and reactivities, rat; type: in vivo
Description: (§1) On a résumé ci-après les résultats des essais pharmacologiques qui ont été entrepris avec les produits selon la présente addition. Dans ces essais, les produits de formule I à étudier ont été administrés par voie intrapéritonéale, en suspension dans une solution aqueuse de gomme arabique, sous un volume de 20 ml/kg chez la souris mâle et sous un volume de 5 ml/kg chez le rat mâle.
(§2) Pour apprécier le comportement global et les réactivités, des lots de six animaux (souris mâles ou rats mâles) ont été observés avant administration de chaque produit, puis 15 min, 30 min, 1 h, 2 h, 3 h et 24 h après administration de chaque produit. Les résultats sont consignés dans le tableau III ci-après, […]

souris [1] = assay: Interaction with apomorphine, mouse; type: in vivo
Description: as §1
Des lots de 6 souris par dose reçoivent le CRL 40933 0,5 h avant l'injection sous-cutanée d'apomorphine administrée à la dose de 1 ou 16 mg/kg.

souris mâle [2] = assay: Toxicity, DL-0; type: in vivo; conditions: i.p.
Description: as §1
La toxicité a été étudiée chez la souris mâle. Les résultats relatifs à la DL-0 (dose minimale non mortelle) sont donnés dans le tableau II ci-après.

souris [3] = assay: Spontaneous motility (actimeter); type: in vivo
Description: as §1
Une demi-heure, après avoir reçu le CRL 40933, les souris (6 par dose, 12 témoins) sont placées en actimètre où leur motilité est enregistrée pendant 30 min.

souris [4] = assay: Motility reduced by hypoxic aggression (acute hypobaric anoxia); type: in vivo; conditions: 128 mg/kg i.p.
Description: as §1
Une demi-heure après avoir reçu le CRL 40933, les souris (10 par dose, 20 témoins) sont soumises à une anoxie hypobare aiguë [dépression de 600 mm Hg (soit environ 8 x 10^4 pascals) en 90 s, puis détente de 45 s], puis elles sont placées en actimètre où leur motilité est enregistrée pendant 10 min.

souris [5] = assay: Asphyxic anoxia (gallamine triethiodide); type: in vivo; conditions: 128 mg/kg i.p., 30 min before triiodoéthylate de gallamine 32 mg/kg i.p.
Description: as §1
Des lots de 10 souris par dose reçoivent le CRL 40933 30 min avant l'administration intrapéritonéale de 32 mg/kg de triiodoéthylate de gallamine.

rat = assay: Interaction with apomorphine, rat; type: in vivo; conditions: apomorphine 0,5 mg/kg s.c., dose not stated
Description: as §1
Le CRL 40933 est administré à des lots de 6 rats 0,5 h avant l'injection sous-cutanée de 0,5 mg/kg d'apomorphine.

souris [6] = assay: Motility reduced by habituation to the enclosure; type: in vivo
Description: as §1
Après 18 h de séjour dans les actimètres, les souris (6 par dose, 12 témoins) reçoivent le CRL 40933. Elles sont aussitôt replacées dans leurs enceintes respectives et, 30 min plus tard, on enregistre leur motilité pendant 30 min.

souris [7] = assay: Interaction with barbital (sleep); type: in vivo; conditions: dès la dose de 8 mg/kg i.p., barbital 220 mg/kg i.p.
Description: as §1
Une demi-heure après l'administration de CRL 40933, des lots de 10 souris reçoivent une injection intrapéritonéale de 220 mg/kg de barbital.

souris [8] = assay: Traction test; type: in vivo; conditions: 0,5 h after administration, dose not stated
Description: as §1
(§3) Les essais sont effectués sur des lots de 10 souris (par dose) 0,5 h après l'administration du CRL 40933.

souris [9] = assay: Interaction with oxotremorine; type: in vivo
Description: as §1
Le CRL 40933 est administré à des lots de 6 souris 0,5 h avant l'injection intrapéritonéale de 0,5 mg/kg d'oxotrémorine.

souris [10] = assay: Electroshock; type: in vivo; conditions: 32 mg/kg à 128 mg/kg i.p.
Description: as §1, §3

souris [11] = assay: Intergroup aggressiveness; type: in vivo; conditions: dose not stated
Description: as §1
Après avoir séjourné pendant 3 semaines dans chacune des moitiés d'une cage séparées par une cloison opaque, des groupes de 3 souris reçoivent le CRL 40933. 30 min plus tard, les deux groupes d'une même cage sont réunis par retrait de la cloison et on note le nombre de combats qui surviennent en 10 min.

rats = assay: Interaction with amphetamine (stereotypies); type: in vivo; conditions: rat; amphétamine 2 mg/kg i.p.; doses used, not stated
Description: as §1
L'amphétamine (2 mg/kg)est injectée par voie intrapéritonéale à des lots de 6 rats, 30 min après l'administration de CRL 40933.

souris [12] = assay: Interaction with reserpine; type: in vivo; conditions: 32 mg/kg et 12'8 mg/kg i.p.
Description: as §1
Quatre heures après l'injection intrapéritonéale de 2,5 mg/kg de réserpine, des lots de 6 souris reçoivent le CRL 40933.

souris mâle [13] = assay: Pentobarbital-induced sleep duration; type: in vivo; conditions: dose 8 mg/kg i.p., 0,5 h before pentobarbital
Source text: Les composés selon l'invention se distinguent du benzhydrylsulfinylacétamide (CRL 40476) précité par une différence d'action vis-à-vis du sommeil barbiturique. […]. Cette différence d'action qui est intéressante sur le plan thérapeutique est illustrée par le tableau IV

souris [14] = assay: Four plates test; type: in vivo; conditions: 0,5 h after administration, dose not stated
Description: as §1, §3

souris [15] = assay: Behavioural despair (forced immersion); type: in vivo; conditions: souris; 8 mg/kg, 32 mg/kg, mais surtout 128 mg/kg i.p.
Description: as §1
Une demi-heure après avoir reçu le CRL 40933, des lots de 10 souris par dose sont placés dans un espace restreint rempli d'eau sur une hauteur de 6 cm; on note la durée d'immobilité entre la 2e et la 6e minute suivant l'immersion.

homme = assay: Clinical trials; type: in vivo
Source text: Les études cliniques ont porté sur les troubles de la vigilance, de l'éveil et des états confusionnels, d'une part, et sur les troubles de l'affectivité, du contact et des dépressions, d'autre part.

[16] = Global behaviour and reactivities, mouse; type: in vivo, souris; conditions: mouse, in vivo, ip, souris, 24 h après administration, read-out: mortalité tardive
Description: as §1, §2

souris mâles = assay: Global behaviour and reactivities, mouse; type: in vivo; conditions: souris
Description: as §1, §2

SNC = assay: Essential activity on the CNS (Tableau I and conclusions of the neuropsychopharmacological study); type: in vivo
Source text: Dans le tableau I ci-après, on a consigné un certain nombre de composés selon la formule I de façon nullement limitative, en mentionnant l'activité essentielle sur le SNC.
Les composés de formule I agissent tous sur le SNC. Les produits des exemples 1-3 et 7-8 sont des agents stimulants, en revanche les produits des exemples 4-6 sont des agents sédatifs.

NC(=O)C[S+]([O-])C(c1ccccc1)c1ccc(Cl)cc1 (stereo not shown) [Exemple 7, 4-chlorobenzhydrylsulfinylacétamide]
Observations (comportement global et réactivités) (rats mâles; 16 mg/kg i.p.): mydriase 1 h après administration | Observations (comportement global et réactivités) (rats mâles; 64 mg/kg i.p.): hypotonie musculaire pendant 3 h - respiration déprimée pendant 3 h - mydriase pendant 2 à 3 h | comportement de verticalisation et stéréotypies (apomorphine) (souris [1]; 128 mg/kg i.p.): sans modifier | action hypothermisante de l'apomorphine (souris [1]; 128 mg/kg i.p. 0,5 h before apomorphine 16 mg/kg s.c.): s'oppose | DL-O (souris mâle [2]): supérieure à 256 mg/kg | motilité spontanée (souris [3]; 2 mg/kg i.p. (lowest dose used)): diminution de motilité | motilité spontanée (souris [3]; 32 mg/kg et 128 mg/kg i.p.): augmentation nette | récupération motrice après séjour bref dans une enceinte à pression réduite (souris [4]): amélioration nette | délai d'apparition des convulsions et de la mort consécutives à une anoxie asphyxique (souris [5]): diminue | stéréotypies induites par l'apomorphine (rat): ne modifie pas | reprise de l'activité chez la souris habituée à son enceinte (souris [6]; 2 mg/kg et 8 mg/kg i.p.): à peine perceptible | reprise de l'activité chez la souris habituée à son enceinte (souris [6]; 32 mg/kg à 128 mg/kg i.p.): net | durée du sommeil induit par le barbital (souris [7]): diminue | déficit moteur (traction) (souris [8]): ne provoque pas de déficit moteur majeur | effet hypothermisant de l'oxotrémorine (souris [9]; 128 mg/kg i.p., 0,5 h before oxotrémorine 0,5 mg/kg i.p.): s'oppose faiblement | signes de stimulation cholinergique périphérique dus à l'oxotrémorine (souris [9]; dose not stated): ne modifie pas | tremblements induits par l'oxotrémorine (souris [9]; dose not stated): ne sont pas influencés | effets convulsivants de l'électrochoc (souris [10]): s'oppose | agressivité intergroupes (nombre de combats) (souris [11]): ne modifie pas nettement | stéréotypies amphétaminiques (rats): ne modifie pas sensiblement | ptôsis réserpinique (souris [12]): sans modifier | hypothermie réserpinique (souris [12]; 4 h after réserpine 2,5 mg/kg i.p.): s'oppose très faiblement | Action sur la durée du sommeil induit par le pentobarbital (50 mg/kg i.p.) effet (souris mâle [13]): (a) | nombre de passages punis (souris [14]): n'entraine pas d'augmentation nette | durée d'immobilité (souris [15]): diminue | action contre l'énurésie (homme): agissent efficacement | résultats en tant que médicaments de l'éveil (homme; notamment vieillard, gélules ou comprimés de 100 à 200 mg, 1 à 3 par jour): excellents résultats | mortality at 24 h ([16]; 512 mg/kg i.p.): 33% | mortality at 24 h ([16]; 1024 mg/kg i.p.): 66% | Observations (comportement global et réactivités) (souris mâles; 512 mg/kg i.p.): crampes abdominales, sédation et hypo-réactivité au toucher | Observations (comportement global et réactivités) (souris mâles; 1024 mg/kg i.p.): crampes abdominales, sédation et hypo-réactivité au toucher, respiration dépri-mée | Observations (comportement global et réactivités) (souris mâles; 128 mg/kg i.p.): excitation apparaissant 1,5 h après administration et durant 3 h - réactivité au toucher | Observations (comportement global et réactivités) (souris mâles; 256 mg/kg i.p.): crampes abdominales, respiration déprimée, puis - excitation apparaissant 1,5 h après administration | Activité sur le SNC (SNC; in vivo): stimulant | conclusion of the neuropsychopharmacological study: main type of CNS effect (SNC; in vivo): effets de type stimulant | conclusion: effets de type antidépresseur (SNC; in vivo): effets de type antidépresseur qui sont faibles | conclusion: effets anticonvulsivants (SNC; souris mâle): effets anticonvulsivants
